Results from US20190315711A1 (eXIthera Pharmaceuticals, Inc., priority 2016, published 2019).
In brackets after ≈: the same amount, converted by molar mass.

What was measured:
[1] = biological target: T1, Thrombin (Homo sapiens, UniProt P00734); test: Dose response assay for protease inhibitors: thrombin; format: biochemical; details: ratio versus Factor XIa
T1 construct: Thrombin; 0.2 μM in 50% glycerol (7.34 μg/mL)
Method: • Assay buffer: 20 mM Hepes, pH 7.4; 150 mM NaCl; 0.02% Tween 20 • Compounds: 10 mM stocks in DMSO • Substrate: 20 mM Glp-Pro-Arg-AMC, 25 mg/2.3 mL H2O (store at +4° C.) [Factor XIa, thrombin, and trypsin] • 20 mM Pro-Phe-Arg-AMC (Bachem I-1295), 25 mg/2.2 mL H2O or Boc-Leu-Gly-Arg-AMC (Bachem I-1105), 25 mg/2.07 mL H2O (store at +4° C.) [Factor Xa] • Enzyme: Factor XIa; 0.25 M in 50% glycerol (20 μg/mL) • Trypsin; 0.2 μM in 50% glycerol (4.8 μg/mL) • Thrombin; 0.2 μM in 50% glycerol (7.34 μg/mL) • Factor Xa; 0.2 μM in 50% glycerol (9.2 μg/mL)
• 1. Dilute the substrate to 100 μM in assay buffer (30 μL/6 mL). The enzyme is diluted to 0.5 nM just prior to use (12 L/6 mL for Factor XIa; 15 μL/6 mL for all of the rest.) • 2. Pipette 50 μL of substrate into each well of the 96 well (12×8) microtiter plate. (Column 1 is used as the 100% activity control and receives no compound, and Column 12 is the blank and receives no enzyme.) Add an additional 46 μL to column 2. • 3. Pipette 4 μL of each compound into the appropriate well in column 2 of the plate (unknowns assayed in triplicate, standard assayed in duplicate). The final compound concentration will be 1/50th of the stock. • 4. Serially two-fold dilute the compound by mixing the sample in column 2, removing 50 μL to the next well (column 3), mix and remove to column 4, etc. until column 11. After mixing column 11, remove 50 μL and discard. • 5. Pipette 50 μL of buffer into column 12. Initiate the reaction by adding 50 μL of enzyme solution to each well of columns 1-11 as rapidly as possible. • 6. Read the plate in a spectrophotometer (SpectraMax) at 30° C., wherein each well is measured every 60 s for 30 min. For Factor Xa assays, each well is measured every 1 min for a total of 60 min. • 7. For Factor XIa assays, the compounds are assayed, in duplicate, at 3 different starting concentrations, 20, 2, and 0.2 μM; 1:10, 1:100, and 1:1000 dilution of 10 mM stock or at 2, 0.2, and 0.02 μM; 1:100, 1:1000, and 1:10,000 dilution of 10 mM stock. Data for each concentration are combined for graphing and data fitting. • 8. Data can be used both for estimation of IC50 and for estimation of Kon.

[2] = Plasma protein binding by equilibrium dialysis; format: in vitro ADME; details: both sexes, pooled plasma, pH 7.4, human plasma protein binding, read-out: PPB
Method: The following procedure was used to determine the plasma protein binding of a test compound in pooled plasma from human (mixed gender) via equilibrium dialysis in a 96-well plate format. The dialysate compartment was loaded with phosphate-buffered saline (pH 7.4) and the sample side was loaded with plasma spiked with the test compound at a concentration of 10 μM. After loading, samples were covered and incubated for 4 hours at 37° C. After incubation, each compartment was sampled, diluted with acetonitrile/buffer and centrifuged. The supernatants were analyzed by HPLC-MS/MS. The analyte peak areas obtained from HPLC-MS/MS analysis of each sample were used to calculate protein binding according to the following equation (Equation 4):
where: AREAp=Peak area of analyte in protein matrix; AREAb=Peak area of analyte in buffer. The amount measured in the plasma compartment included both free and bound drug, while that on the buffer side represented free drug only; the differences were used to calculate the percentage plasma protein bound. Three reference compounds were tested in each assay: acebutolol, quinidine and warfarin.

[3] = Aqueous solubility in PBS pH 7.4; format: physicochemical; details: phosphate buffered saline, aqueous buffer, kinetic from dmso stock, PBS pH 7.4, room temperature
Method: The following procedure was used to determine the aqueous solubility of a test compound in phosphate buffered saline (PBS—NaCl 137 mM, KCl 2.7 mM, Na2HPO4 8.1 mM, KH2PO4 1.5 mM, pH 7.4) in 96-well plate format by HPLC-UV/VIS analysis. The test compound was prepared at 200 μM in PBS from a 10 mM DMSO stock solution. The final DMSO concentration was 2%. The PBS buffer samples were mixed thoroughly followed by incubation at room temperature for 24 h. At the end of the incubation, the PBS buffer samples were centrifuged and supernatants analyzed by HPLC. The aqueous solubility (μM) of the test compound in PBS was determined by comparing the peak area of the principal peak in the calibration standard (200 μM) with the peak area of the corresponding peak in each of the PBS samples. The range of the assay was approximately 0.5 μM to 200 μM. The reference compounds used in each assay were metoprolol, rifampicin, ketoconazole, phenytoin, haloperidol, simvastatin, diethylstilbestrol, and tamoxifen ranking from fully soluble (200 μM) to poorly soluble (<1 μM).

[4] = Metabolic stability in dog hepatocytes; format: in vitro ADME; details: pooled cryopreserved hepatocytes; beagle dog hepatocytes, 2 μM compound, 500,000 cells/mL, 37° C.; read-out: Dog Hepatocyte Stability (T½: min)
Method: The following procedure was used to determine the stability of test compounds in beagle dog hepatocytes in a 96-well plate format. The test compounds, including the controls, imipramine and 7-ethoxycoumarin, were dissolved at 10 mM in DMSO, followed by further 5-fold dilution with DMSO to 2 mM. Pooled cryopreserved beagle dog hepatocytes were thawed and transferred into complete medium. Cells were gently centrifuged (700 rpm for 5 min) and the pellet rinsed with KHB (Krebs Henseleit buffer). Cells were resuspended, counted using Trypan blue, and adjusted to 1 million cells/mL in KHB buffer. The 2 mM compound stock solutions were diluted 10-fold with acetonitrile, followed by a further 50-fold dilution with KHB buffer. 200 μL of these compound solutions were transferred to 96-well polypropylene assay plates and an equal volume of the hepatocyte solution was added and mixed to initiate the reaction (final assay concentrations were 2 μM compound and 500,000 cells/mL). Assay plates were incubated at 37° C. in 5% CO2 with gentle agitation. 50 μL aliquots were removed at multiple time points out to 180 minutes and quenched with 6 volumes of cold acetonitrile (containing 250 ng/mL of carbutamide and chrysin as internal standards) to terminate the reaction and precipitate protein. Quenched samples were maintained on ice. The quenched samples were centrifuged at 2000×g (3100 rpm) for 10 minutes at 4° C. 50 μL aliquots of the supernatants were removed and diluted with 100 μL Milli-Q water to reduce the % organic content prior to bioanalysis by LC-MS/MS. Peak areas corresponding to the test compound were recorded. The compound remaining was calculated by comparing the peak area at each time point to time zero. Data were analyzed and results were calculated using Microsoft Excel 2010.

Row | Structure (SMILES) | Ratio: Thrombin/FXIa [1] | fraction unbound at 4 h, 10 μM [2] | solubility at 24 h [3] | half-life at 2 μM [4]
1 | Cc1ccccc1N(C)C(=O)[C@@H]1[C@@H](Cc2ccnc(N)c2)C(=O)N1C(=O)N[C@@H](C1CCCCC1)C(F)(F)F [Compound 15] | G (“G” indicates 1-100) | < 0.05 | 10 to 100 µM (≈ 5.32 to 53.2 µg/mL) | 
2 | CN(C(=O)[C@@H]1[C@@H](Cc2ccnc(N)c2)C(=O)N1C(=O)N[C@@H](C1CCCCC1)C(F)(F)F)c1cncnc1 [Compound 19] | G (“G” indicates 1-100) | 0.05 to 0.09 | > 100 µM | 
3 | CN(C(=O)[C@@H]1[C@@H](Cc2ccnc(N)c2)C(=O)N1C(=O)N[C@@H](C1CCCCC1)C(F)(F)F)c1ncccn1 [Compound 21] | H (“H” indicates 101-1000) | < 0.05 | > 100 µM | < 1 h
4 | CN(C(=O)[C@@H]1[C@@H](Cc2ccnc(N)c2)C(=O)N1C(=O)N[C@@H](C1CCCCC1)C(F)(F)F)c1cccc(F)c1 [Compound 22] | G (“G” indicates 1-100) | < 0.05 | 10 to 100 µM (≈ 5.36 to 53.6 µg/mL) | 
5 | CCN(C(=O)[C@@H]1[C@@H](Cc2ccnc(N)c2)C(=O)N1C(=O)N[C@@H](C1CCCCC1)C(F)(F)F)c1ccccc1 [Compound 24] | G (“G” indicates 1-100) | < 0.05 | 10 to 100 µM (≈ 5.32 to 53.2 µg/mL) | 
6 | CN(C(=O)[C@@H]1[C@@H](Cc2ccnc(N)c2)C(=O)N1C(=O)N[C@@H](C1CCCCC1)C1CC1)c1ccccc1 [Compound 36] | H (“H” indicates 101-1000) | < 0.05 | > 100 µM | < 1 h
7 | CC[C@@H](NC(=O)N1C(=O)[C@H](Cc2ccnc(N)c2)[C@H]1C(=O)N(CC)c1ncccn1)C1CCCCC1 [Compound 39] | I (“I” indicates >500) |  |  | < 1 h
8 | C[C@@H](NC(=O)N1C(=O)[C@H](Cc2ccnc(N)c2)[C@H]1C(=O)N(C)c1ccccc1)C1CCCCC1 [Compound 49] | H (“H” indicates 101-1000) | 0.05 to 0.09 | > 100 µM | < 1 h

Next, values leading:

Row | Ratio: Thrombin/FXIa [1] | fraction unbound at 4 h, 10 μM [2] | solubility at 24 h [3] | half-life at 2 μM [4] | Structure (SMILES)
9 | G (“G” indicates 1-100) | 0.1 to 0.5 | > 100 µM |  | CN(C(=O)[C@@H]1[C@@H](Cc2ccnc(N)c2)C(=O)N1C(=O)N[C@@H](C1CCCCC1)C(F)(F)F)c1cccnc1 [Compound 17]
10 | H (“H” indicates 101-1000) | 0.1 to 0.5 | > 100 µM |  | CN(C(=O)[C@@H]1[C@@H](Cc2ccnc(N)c2)C(=O)N1C(=O)N[C@@H](C1CCCCC1)C(F)(F)F)c1ccncc1 [Compound 18]
11 | I (“I” indicates >500) | 0.1 to 0.5 | > 100 µM | 2.02 to 4 h | CC[C@@H](NC(=O)N1C(=O)[C@H](Cc2ccnc(N)c2)[C@H]1C(=O)N(C)c1ccncc1)C1CCCCC1 [Compound 25]
12 | H (“H” indicates 101-1000) | 0.05 to 0.09 | > 100 µM | 2.02 to 4 h | CC[C@@H](NC(=O)N1C(=O)[C@H](Cc2ccnc(N)c2)[C@H]1C(=O)N(C)c1ccccc1)C1CCCCC1 [Compound 27]
13 | H (“H” indicates 101-1000) | 0.1 to 0.5 | > 100 µM | 2.02 to 4 h | CC[C@@H](NC(=O)N1C(=O)[C@H](Cc2ccnc(N)c2)[C@H]1C(=O)N(C)c1ccncc1)c1ccccc1 [Compound 42]
14 | G (“G” indicates 1-100) | 0.1 to 0.5 | > 100 µM | 2.02 to 4 h | CC[C@@H](NC(=O)N1C(=O)[C@H](Cc2ccnc(N)c2)[C@H]1C(=O)N(C)c1ccccc1)c1cccnc1 [Compound 44]
15 | G (“G” indicates 1-100) | 0.1 to 0.5 | > 100 µM |  | CC[C@@H](NC(=O)N1C(=O)[C@H](Cc2ccnc(N)c2)[C@H]1C(=O)N(C)c1ccccc1)C1CC1 [Compound 46]
16 | G (“G” indicates 1-100) | < 0.05 | > 100 µM | 1.02 to 2 h | CCC[C@@H](NC(=O)N1C(=O)[C@H](Cc2ccnc(N)c2)[C@H]1C(=O)N(C)c1ccccc1)C1CCCCC1 [Compound 50]
17 | H (“H” indicates 101-1000) | 0.05 to 0.09 | > 100 µM | < 1 h | CN(C(=O)[C@@H]1[C@@H](Cc2ccnc(N)c2)C(=O)N1C(=O)N[C@@H](C1CCCCC1)C1CC1)c1ccncc1 [Compound 52]
18 | H (“H” indicates 101-1000) | < 0.5 | > 100 µM | > 4 h | CC[C@@H](NC(=O)N1C(=O)[C@H](Cc2ccnc(N)c2)[C@H]1C(=O)N(C)c1ccncc1)c1cccnc1 [Compound 59]
19 | H (“H” indicates 101-1000) | < 0.5 | > 100 µM | 2.02 to 4 h | CC[C@@H](NC(=O)N1C(=O)[C@H](Cc2ccnc(N)c2)[C@H]1C(=O)N(C)c1ncccn1)c1cccnc1 [Compound 61]
20 | H (“H” indicates 101-1000) | < 0.5 | > 100 µM | 2.02 to 4 h | CN(C(=O)[C@@H]1[C@@H](Cc2ccnc(N)c2)C(=O)N1C(=O)N[C@@H](C1CC1)C(F)(F)F)c1ccncc1 [Compound 77]
